Measurements from ChEMBL document CHEMBL4052588, “Design of a Biased Potent Small Molecule Inhibitor of the Bromodomain and PHD Finger-Containing (BRPF) Proteins Suitable for Cellular and in Vivo Studies” (J Med Chem, 2017).

Legend:
[1] = target: Transcription initiation factor TFIID subunit 1, TAF1 (Homo sapiens) (UniProt P21675); test: Inhibition of human His tagged TAF1 incubated for 30 mins followed by addition of biotinylated peptide and further incubation for 30 mins measured by AlphaScreen assay
[2] = test system: SW48; test: Growth inhibition of human SW48 cells after 72 hrs; format: functional; details: SW48, 72 h
[3] = target: T1, Bromodomain-containing protein 9 (Homo sapiens, UniProt Q9H8M2); test: Binding affinity to human BRD9 by isothermal titration calorimetry
T1 sequence (Q9H8M2 whole entry): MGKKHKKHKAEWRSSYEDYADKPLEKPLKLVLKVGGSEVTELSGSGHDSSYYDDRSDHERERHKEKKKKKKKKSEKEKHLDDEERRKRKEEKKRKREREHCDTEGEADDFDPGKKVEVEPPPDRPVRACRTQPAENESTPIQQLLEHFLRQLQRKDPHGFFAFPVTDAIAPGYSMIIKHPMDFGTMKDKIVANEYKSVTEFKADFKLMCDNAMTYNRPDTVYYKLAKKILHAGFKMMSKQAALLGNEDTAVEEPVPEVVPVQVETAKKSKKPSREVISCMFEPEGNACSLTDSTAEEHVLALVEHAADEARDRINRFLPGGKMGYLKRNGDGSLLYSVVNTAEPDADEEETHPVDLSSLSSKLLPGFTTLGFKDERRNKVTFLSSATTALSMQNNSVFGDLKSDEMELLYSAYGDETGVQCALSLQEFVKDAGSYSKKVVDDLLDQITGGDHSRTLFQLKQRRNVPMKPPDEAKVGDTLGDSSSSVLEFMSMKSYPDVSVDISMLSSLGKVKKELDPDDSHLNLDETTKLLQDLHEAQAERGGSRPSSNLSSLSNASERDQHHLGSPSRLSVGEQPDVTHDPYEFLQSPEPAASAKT

[4] = Apparent permeability from basolateral to apical side in human Caco2 cells at 10 uM after 2 hrs by LC-MS/MS analysis; format: ADME, cell-based; details: Caco-2
[5] = test system: OCI-LY19; test: Growth inhibition of human OCI-LY19 cells after 72 hrs; format: functional; details: OCI-LY19, 72 h
[6] = Growth inhibition of human QGP1 cells after 72 hrs; format: functional; details: QGP-1, 72 h
[7] = test system: ASPC1; test: Growth inhibition of human AsPC1 cells after 72 hrs; format: functional; details: ASPC1, 72 h
[8] = target: T2, Bromodomain and PHD finger-containing protein 3 (Homo sapiens, UniProt Q9ULD4); test: Binding affinity to human BRPF3 by isothermal titration calorimetry
T2 sequence (Q9ULD4 whole entry): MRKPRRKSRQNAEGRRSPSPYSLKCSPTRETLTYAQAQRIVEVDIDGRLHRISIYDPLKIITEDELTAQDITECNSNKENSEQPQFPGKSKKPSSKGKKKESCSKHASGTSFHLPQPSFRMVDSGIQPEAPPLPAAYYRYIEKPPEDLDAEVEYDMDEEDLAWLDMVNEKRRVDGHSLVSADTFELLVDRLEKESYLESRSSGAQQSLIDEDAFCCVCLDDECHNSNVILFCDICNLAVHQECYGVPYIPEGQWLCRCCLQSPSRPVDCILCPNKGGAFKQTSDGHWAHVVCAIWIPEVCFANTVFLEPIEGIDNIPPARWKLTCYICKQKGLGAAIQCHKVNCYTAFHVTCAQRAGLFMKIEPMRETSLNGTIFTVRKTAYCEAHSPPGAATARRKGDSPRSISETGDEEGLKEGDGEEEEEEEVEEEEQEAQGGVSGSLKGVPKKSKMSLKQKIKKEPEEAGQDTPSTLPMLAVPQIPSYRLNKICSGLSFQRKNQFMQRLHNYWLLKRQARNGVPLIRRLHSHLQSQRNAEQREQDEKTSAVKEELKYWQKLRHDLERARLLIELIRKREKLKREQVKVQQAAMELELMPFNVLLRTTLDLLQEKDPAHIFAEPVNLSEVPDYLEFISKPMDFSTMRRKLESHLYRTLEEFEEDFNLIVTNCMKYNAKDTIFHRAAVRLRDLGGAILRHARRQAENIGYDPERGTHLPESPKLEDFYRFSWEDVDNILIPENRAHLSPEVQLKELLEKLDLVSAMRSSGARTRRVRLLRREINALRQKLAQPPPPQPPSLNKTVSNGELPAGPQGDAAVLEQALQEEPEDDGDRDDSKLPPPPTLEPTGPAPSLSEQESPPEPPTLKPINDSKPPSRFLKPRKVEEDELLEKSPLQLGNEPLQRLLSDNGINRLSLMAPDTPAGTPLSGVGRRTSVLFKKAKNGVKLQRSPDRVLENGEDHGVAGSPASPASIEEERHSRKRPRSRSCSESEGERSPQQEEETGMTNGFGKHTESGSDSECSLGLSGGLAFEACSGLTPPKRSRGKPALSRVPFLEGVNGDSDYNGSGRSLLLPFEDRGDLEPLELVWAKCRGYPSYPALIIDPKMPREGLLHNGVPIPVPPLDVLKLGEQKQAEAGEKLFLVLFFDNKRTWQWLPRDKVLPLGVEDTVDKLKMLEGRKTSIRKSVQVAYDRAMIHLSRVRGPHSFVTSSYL

[9] = Growth inhibition of human C99 cells after 72 hrs; format: functional; details: C99, 72 h

Chain of Transcription initiation factor TFIID subunit 1, TAF1 (Homo sapiens) (P21675 whole entry, looked up): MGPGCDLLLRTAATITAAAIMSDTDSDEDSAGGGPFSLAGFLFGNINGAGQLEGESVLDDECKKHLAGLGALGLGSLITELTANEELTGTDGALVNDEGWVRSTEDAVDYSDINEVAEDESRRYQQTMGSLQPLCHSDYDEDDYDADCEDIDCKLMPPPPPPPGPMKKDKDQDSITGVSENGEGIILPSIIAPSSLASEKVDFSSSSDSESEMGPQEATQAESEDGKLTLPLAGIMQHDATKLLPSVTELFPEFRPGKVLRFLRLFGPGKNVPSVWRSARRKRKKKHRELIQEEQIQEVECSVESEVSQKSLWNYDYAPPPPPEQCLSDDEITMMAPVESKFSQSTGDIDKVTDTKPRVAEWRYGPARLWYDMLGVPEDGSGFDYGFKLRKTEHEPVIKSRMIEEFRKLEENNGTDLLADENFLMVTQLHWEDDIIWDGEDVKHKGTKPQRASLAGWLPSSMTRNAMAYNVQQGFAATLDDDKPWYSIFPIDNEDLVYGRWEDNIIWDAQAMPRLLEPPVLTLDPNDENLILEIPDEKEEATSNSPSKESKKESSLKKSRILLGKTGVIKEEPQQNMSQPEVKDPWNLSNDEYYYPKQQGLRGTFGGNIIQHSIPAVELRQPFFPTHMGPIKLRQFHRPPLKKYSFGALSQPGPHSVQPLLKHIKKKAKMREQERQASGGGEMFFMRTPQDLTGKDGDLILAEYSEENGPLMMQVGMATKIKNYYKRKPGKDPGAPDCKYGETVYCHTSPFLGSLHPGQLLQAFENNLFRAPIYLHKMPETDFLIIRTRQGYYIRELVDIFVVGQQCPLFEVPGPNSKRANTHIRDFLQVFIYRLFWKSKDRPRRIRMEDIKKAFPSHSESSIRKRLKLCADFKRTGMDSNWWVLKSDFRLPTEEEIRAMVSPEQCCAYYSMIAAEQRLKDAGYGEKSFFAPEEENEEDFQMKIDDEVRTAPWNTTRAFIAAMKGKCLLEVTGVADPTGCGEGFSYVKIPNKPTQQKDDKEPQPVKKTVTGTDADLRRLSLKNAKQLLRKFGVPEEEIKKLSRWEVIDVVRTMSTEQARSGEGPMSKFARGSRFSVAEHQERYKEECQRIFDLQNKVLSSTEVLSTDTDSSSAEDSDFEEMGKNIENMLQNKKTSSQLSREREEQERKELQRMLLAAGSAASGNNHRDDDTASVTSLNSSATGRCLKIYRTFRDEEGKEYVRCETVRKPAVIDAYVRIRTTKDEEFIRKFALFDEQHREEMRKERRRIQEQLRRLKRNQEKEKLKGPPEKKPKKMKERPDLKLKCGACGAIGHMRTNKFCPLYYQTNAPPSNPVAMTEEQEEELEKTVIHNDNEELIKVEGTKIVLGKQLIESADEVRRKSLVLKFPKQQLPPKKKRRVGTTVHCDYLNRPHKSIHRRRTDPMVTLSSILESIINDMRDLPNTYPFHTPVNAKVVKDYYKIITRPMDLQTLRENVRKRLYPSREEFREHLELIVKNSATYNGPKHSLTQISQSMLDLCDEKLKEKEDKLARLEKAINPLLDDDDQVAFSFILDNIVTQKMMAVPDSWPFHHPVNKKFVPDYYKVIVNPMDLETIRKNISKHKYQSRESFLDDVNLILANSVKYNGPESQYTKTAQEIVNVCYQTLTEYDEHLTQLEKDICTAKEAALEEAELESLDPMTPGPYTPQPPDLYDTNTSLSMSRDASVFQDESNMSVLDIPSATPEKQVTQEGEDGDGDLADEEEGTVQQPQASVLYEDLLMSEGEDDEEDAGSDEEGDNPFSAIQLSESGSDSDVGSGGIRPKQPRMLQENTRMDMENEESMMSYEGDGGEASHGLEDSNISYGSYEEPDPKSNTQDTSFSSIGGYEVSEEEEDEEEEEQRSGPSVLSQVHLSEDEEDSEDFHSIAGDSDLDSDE

SMILES	IC50 [1] [µM]	GI50 [2] [µM]	Kd [3] [µM]	Papp B→A at 2 h, 10 µM [4] [×10⁻⁶ cm/s]	GI50 [5] [µM]	GI50 [6] [µM]	GI50 [7] [µM]	Kd [8] [µM]	GI50 [9] [µM]
CCc1cc2cc(NS(=O)(=O)c3ccc(C#N)cc3)ccc2n(CC)c1=O	> 20								
Cc1cc2cc(NS(=O)(=O)c3ccc(C#N)cc3)ccc2n(C)c1=O		1 to 10	1.13	50	1 to 10	1 to 10	1 to 10	0.94	1 to 10
